Reference: patent US20070298108A1, “Pharmaceutical Formulation” (priority 2004, published 2007)

Assays:
[1] = Open dish study: constant influence of humidity on binary mixtures of losartan potassium form X; assay type: physicochemical; details: 5 days, 25° C., 60% relative humidity
Protocol: Storage conditions: Open dish study—constant influence of humidity Testing mixtures are put into open petri dishes and stored in a thermostatically controlled chamber at a temperature of 25° C. (±2° C.) and 60% (±5%) relative humidity
(§1) Mixtures are tested for up to 5 days in open petri dishes and up to 4 and 9 days in vials, and the following parameters were analysed at intervals of a few days or until the occurrence of significant change: appearance, […], conversion of a polymorph form (detected using powder X-ray diffraction spectroscopy and expressed as the amount of crystalline or amorphous phase different from the starting polymorph).

[2] = Vial study: influence of humidity in a closed container on binary mixtures of losartan potassium form X; assay type: physicochemical
Protocol: Storage conditions: Vial study—influence of humidity in a closed container (simulation of packaging)
Testing mixtures are put into vials, exposed to 60% humidity for 18 hours, then closed with rubber stoppers and stored in a thermostatically controlled chamber at temperature of 25° C. (±2° C.) and 60% (±5%) relative humidity.
as §1

[3] = vial, 4 days, exposed to 60% humidity 18 hours, closed, 25° C., 60% relative humidity
[4] = vial, 9 days, exposed to 60% humidity 18 hours, closed, 25° C., 60% relative humidity

CCCCc1nc(Cl)c(CO)n1Cc1ccc(-c2ccccc2-c2nnn[n-]2)cc1.[K+] [Not stabilized API, potassium salt of losartan]
Appearance [1]: white slightly | Form conversion (amount of crystalline or amorphous phase different from the starting polymorph, XRPD) [1]: 10% | Loss on drying [1]: 0.93% | Appearance ([2]; Initial state): white powder | Form conversion (amount of crystalline or amorphous phase different from the starting polymorph, XRPD) ([2]; Initial state): 0% | Loss on drying ([2]; Initial state): 0.08% | Appearance [2, 3]: white slightly | Form conversion (amount of crystalline or amorphous phase different from the starting polymorph, XRPD) [2, 3]: 5% | Loss on drying [2, 3]: 0.52% | Appearance [2, 4]: white slightly | Form conversion (amount of crystalline or amorphous phase different from the starting polymorph, XRPD) [2, 4]: 100%
